19 molecules from patent publication US11142515B2, “Pyrazolyl-ureas as kinase inhibitors” (RESPIVERT LIMITED, priority 2014, dated 2021) can be followed below.

The target in experiment [1] is T1, p38 MAPKα isoform (MAPK14) (Homo sapiens, UniProt Q16539).
T1 construct: purchased Life Technologies
As to the kind of experiment: p38 MAPKα enzyme inhibition (Z-LYTE FRET). It counts as biochemical. The note with it: Table 2B, unit inferred; read-out: p38 MAPKα (Enzyme Profile). The gist of the method:
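Recombinant human MAPK14 (40 ng/mL stock) was preincubated 2 h at RT with compound (stock dilutions 0.0012-40 μg/mL). The Z-LYTE FRET read-out used a MAPKAP-K2-derived peptide, and protease development for 1 h cleaved only non-phosphorylated peptide. Phosphorylation was calculated from the coumarin/fluorescein emission ratio.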

Experiment [2] addresses T2, p38MAPKγ (MAPK12) (Homo sapiens, UniProt P53778).
T2 construct: purchased Life Technologies
T2 sequence (P53778 1-367): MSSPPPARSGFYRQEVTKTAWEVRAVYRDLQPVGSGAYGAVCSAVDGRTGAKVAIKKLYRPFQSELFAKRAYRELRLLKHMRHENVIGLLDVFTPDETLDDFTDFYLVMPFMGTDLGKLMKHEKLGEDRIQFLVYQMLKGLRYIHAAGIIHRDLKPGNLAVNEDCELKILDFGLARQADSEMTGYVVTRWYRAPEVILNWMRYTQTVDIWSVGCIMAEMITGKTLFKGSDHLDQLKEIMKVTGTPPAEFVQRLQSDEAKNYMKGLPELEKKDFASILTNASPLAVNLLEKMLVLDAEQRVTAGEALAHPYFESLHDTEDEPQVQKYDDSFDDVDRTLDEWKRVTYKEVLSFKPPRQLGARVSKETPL
As to the kind of experiment: p38 MAPKγ enzyme inhibition (Z-LYTE FRET). The experiment is classed as biochemical. The note with it: Table 2B, unit inferred; read-out: p38 MAPKγ (Enzyme Profile). The gist of the method: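 Z-LYTE read-out: after 1 h protease development, only non-phosphorylated peptide is cleaved, and the donor/acceptor (coumarin/fluorescein) ratio reports phosphorylation. Beforehand, enzyme and compound (stock concentrations 0.0012–40 μg/mL) were preincubated 2 h at RT, then the kinase reaction ran 1 h at RT with peptide and ATP (8 μM and 400 μM stocks).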

T1 sequence (Q16539 whole entry, canonical isoform): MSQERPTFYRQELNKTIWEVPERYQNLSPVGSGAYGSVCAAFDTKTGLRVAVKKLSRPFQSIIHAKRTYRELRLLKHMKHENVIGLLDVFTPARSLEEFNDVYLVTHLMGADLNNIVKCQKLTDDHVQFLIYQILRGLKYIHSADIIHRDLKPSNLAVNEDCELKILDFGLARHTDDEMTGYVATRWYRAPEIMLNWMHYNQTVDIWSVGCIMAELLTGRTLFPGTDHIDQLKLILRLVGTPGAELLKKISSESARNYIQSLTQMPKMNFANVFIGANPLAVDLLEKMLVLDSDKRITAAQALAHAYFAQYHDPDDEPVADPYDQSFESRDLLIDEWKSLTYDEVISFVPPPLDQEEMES

Consider `Cc1ccc(-n2nc(C(C)(C)C)cc2NC(=O)Nc2ccc(OCc3ccnc(Nc4cnc(C(=O)N5CC[C@@H](F)C5)cn4)c3)c3ccccc23)cc1` [Example 245, (R)-1-(3-(tert-butyl)-1-(p-tolyl)-1H-pyrazol-5-yl)-3-(4-((2-((5-(3-fluoropyrrolidine-1-carbonyl)pyrazin-2-yl)amino)pyridin-4-yl)methoxy)naphthalen-1-yl)urea], for which the IC50 stood at 18 nM in experiment [1] and 1700 nM in experiment [2].
On to `Cc1ccc(-n2nc(C(C)(C)C)cc2NC(=O)Nc2ccc(OCc3ccnc(Nc4cnc(C(=O)N5CCC(F)(F)CC5)cn4)c3)c3ccccc23)cc1` [Example 246, 1-(3-(tert-butyl)-1-(p-tolyl)-1H-pyrazol-5-yl)-3-(4-((2-((5-(4,4-difluoropiperidine-1-carbonyl)pyrazin-2-yl)amino)pyridin-4-yl)methoxy)naphthalen-1-yl)urea], for which the IC50 in experiment [1] was found to be 58 nM; in experiment [2] it was 3730 nM.
For `Cc1ccc(-n2nc(C(C)(C)C)cc2NC(=O)Nc2ccc(OCc3ccnc(Nc4cnc(C(=O)N5C[C@H](O)[C@@H](O)C5)cn4)c3)c3ccccc23)cc1` [Example 247, 1-(3-(tert-butyl)-1-(p-tolyl)-1H-pyrazol-5-yl)-3-(4-((2-((5-((3S,4S)-3,4-dihydroxy-pyrrolidine-1-carbonyl)pyrazin-2-yl)amino)pyridin-4-yl)methoxy)naphthalen-1-yl)urea], the IC50 in experiment [1] was found to be 7 nM; in experiment [2], 61 nM.
Take `Cc1ccc(-n2nc(C(C)(C)C)cc2NC(=O)Nc2ccc(OCc3ccnc(Nc4cnc(C(=O)N5C[C@@H](O)[C@H](O)C5)cn4)c3)c3ccccc23)cc1` [Example 248, 1-(3-(tert-butyl)-1-(p-tolyl)-1H-pyrazol-5-yl)-3-(4-((2-((5-((3R,4R)-3,4-dihydroxy-pyrrolidine-1-carbonyl)pyrazin-2-yl)amino)pyridin-4-yl)methoxy)naphthalen-1-yl)urea]: the IC50 in experiment [1] was determined as 4.7 nM; in experiment [2], 51 nM.
`Cc1ccc(-n2nc(C(C)(C)C)cc2NC(=O)Nc2ccc(OCc3ccnc(Nc4cnc(C(=O)N5CCNC(=O)C5)cn4)c3)c3ccccc23)cc1` [Example 249, 1-(3-(tert-butyl)-1-(p-tolyl)-1H-pyrazol-5-yl)-3-(4-((2-((5-(3-oxopiperazine-1-carbonyl)pyrazin-2-yl)amino)pyridin-4-yl)methoxy)naphthalen-1-yl)urea]: the IC50 came out at 3.6 nM in experiment [1] and 46 nM in experiment [2].
`COc1cc(F)cc(-n2nc(C(C)(C)C)cc2NC(=O)Nc2ccc(OCc3ccnc(Nc4cnc(C(=O)N5CCCC5)cn4)c3)c3ccccc23)c1` [Example 250, 1-(3-(tert-butyl)-1-(3-fluoro-5-methoxyphenyl)-1H-pyrazol-5-yl)-3-(4-((2-((5-(pyrrolidine-1-carbonyl)pyrazin-2-yl)amino)pyridin-4-yl)methoxy)naphthalen-1-yl)urea]: the figures for the IC50 in experiment [1] and in experiment [2] were 11 nM and above 13700 nM, respectively.
For the molecule `CCc1ccc(-n2nc(C(C)(C)C)cc2NC(=O)Nc2ccc(OCc3ccnc(Nc4cnc(C)c(C)n4)c3)c3ccccc23)cc1` [Example 251, 1-(3-(tert-butyl)-1-(4-ethyl-phenyl)-1H-pyrazol-5-yl)-3-(4-((2-((5,6-dimethylpyrazin-2-yl)amino)pyridin-4-yl)methoxy)naphthalen-1-yl) urea], the IC50 in experiment [1] is 81 nM; in experiment [2], above 15600 nM.
Turning to `COCCc1cccc(-n2nc(C(C)(C)C)cc2NC(=O)Nc2ccc(OCc3ccnc(Nc4cnccn4)c3)c3ccccc23)c1` [Example 257, 1-(3-(tert-butyl)-1-(3-(2-methoxyethyl)phenyl)-1H-pyrazol-5-yl)-3-(4-((2-(pyrazin-2-ylamino)pyridin-4-yl)methoxy)naphthalen-1-yl)urea], the IC50 in experiment [1] worked out at 12 nM; in experiment [2], 68 nM.
In the case of `Cc1ccc(-n2nc(C(C)(C)C)cc2NC(=O)Nc2ccc(OCc3ccnc(Nc4cnc(C(=O)N5CC[C@H](N(C)C)C5)cn4)c3)c3ccccc23)cc1` [Example 258, (S)-1-(3-(tert-butyl)-1-(p-tolyl)-1H-pyrazol-5-yl)-3-(4-((2-((5-(3-(dimethyl-amino)pyrrolidine-1-carbonyl)pyrazin-2-yl)amino)pyridin-4-yl)methoxy)naphthalen-1-yl)urea], the IC50 is 2.4 nM in experiment [1] and 77 nM in experiment [2].
With `Cc1ccc(-n2nc(C(C)(C)C)cc2NC(=O)Nc2ccc(OCc3ccnc(Nc4cnc(C(=O)N5CC[C@@H](N(C)C)C5)cn4)c3)c3ccccc23)cc1` [Example 259, (R)-1-(3-(tert-butyl)-1-(p-tolyl)-1H-pyrazol-5-yl)-3-(4-((2-((5-(3-(dimethylamino)pyrrolidine-1-carbonyl)pyrazin-2-yl)amino)pyridin-4-yl)methoxy)naphthalen-1-yl)urea], the IC50 was determined as 1.2 nM in experiment [1] and 146 nM in experiment [2].
Consider `Cc1ccc(-n2nc(C(C)(C)C)cc2NC(=O)Nc2ccc(OCc3ccnc(Nc4cnc(C(=O)NCCN5CCN(C)CC5)cn4)c3)c3ccccc23)cc1` [Example 260, 5-((4-(((4-(3-(3-(tert-butyl)-1-(p-tolyl)-1H-pyrazol-5-yl)ureido)naphthalen-1-yl)oxy)methyl)pyridin-2-yl)amino)-N-(2-(4-methylpiperazin-1-yl)ethyl)pyrazine-2-carboxamide], for which the figures for the IC50 in experiment [1] and in experiment [2] were below 0.39 nM and 47 nM, respectively.
As to `CN(C)Cc1cccc(-n2nc(C(C)(C)C)cc2NC(=O)Nc2ccc(OCc3ccnc(Nc4cnccn4)c3)c3ccccc23)c1` [Example 261, 1-(3-(tert-butyl)-1-(3-((dimethylamino)methyl)phenyl)-1H-pyrazol-5-yl)-3-(4-((2-(pyrazin-2-ylamino)pyridin-4-yl)methoxy)naphthalen-1-yl)urea], the IC50 in experiment [1] was below 0.47 nM; in experiment [2] it was 146 nM.
`COCc1cccc(-n2nc(C(C)(C)C)cc2NC(=O)Nc2ccc(OCc3ccnc(Nc4cnc(CN5CCOCC5)cn4)c3)c3ccccc23)c1` [Example 262, 1-(3-(tert-butyl)-1-(3-(methoxymethyl)phenyl)-1H-pyrazol-5-yl)-3-(4-((2-((5-(morpholinomethyl)pyrazin-2-yl)amino)pyridin-4-yl)methoxy)naphthalen-1-yl)urea]: the figures for the IC50 in experiment [1] and in experiment [2] were 11 nM and 174 nM, respectively.
The matching figures for `Cc1ccc(-n2nc(C(C)(C)C)cc2NC(=O)Nc2ccc(OCc3ccnc(Nc4cnc(CN5CCOCC5)cn4)c3)c3ccccc23)cc1` [Example 263, 1-(3-(tert-butyl)-1-(p-tolyl)-1H-pyrazol-5-yl)-3-(4-((2-((5-(morpholinomethyl)pyrazin-2-yl)amino)pyridin-4-yl)methoxy)naphthalen-1-yl)urea]: 21 nM and 218 nM.
Regarding `COc1cc(-n2nc(C(C)(C)C)cc2NC(=O)Nc2ccc(OCc3ccnc(Nc4cnccn4)c3)c3ccccc23)ccn1` [Example 264, 1-(3-(tert-butyl)-1-(2-methoxypyridin-4-yl)-1H-pyrazol-5-yl)-3-(4-((2-(pyrazin-2-ylamino)pyridin-4-yl)methoxy)naphthalen-1-yl)urea], the IC50 came to 23 nM in experiment [1] and 109 nM in experiment [2].
As to `Cc1cc(-n2nc(C(C)(C)C)cc2NC(=O)Nc2ccc(OCc3ccnc(Nc4cnccn4)c3)c3ccccc23)ccn1` [Example 265, 1-(3-(tert-butyl)-1-(2-methyl-pyridin-4-yl)-1H-pyrazol-5-yl)-3-(4-((2-(pyrazin-2-ylamino)pyridin-4-yl)methoxy)naphthalen-1-yl) urea], the values for the IC50 in experiment [1] and in experiment [2] were 11 nM and 57 nM, respectively.
Turning to `Cc1ccc(-n2nc(C(C)(C)C)cc2NC(=O)Nc2ccc(OCc3ccnc(Nc4cnc(C(=O)NCCC5CCN(C)CC5)cn4)c3)c3ccccc23)cc1` [Example 266, 5-((4-(((4-(3-(3-(tert-butyl)-1-(p-tolyl)-1H-pyrazol-5-yl)ureido)naphthalen-1-yl)oxy)methyl)pyridin-2-yl)amino)-N-(2-(1-methyl-piperidin-4-yl)ethyl) pyrazine-2-carboxamide], the IC50 in experiment [1] was below 0.39 nM; in experiment [2], 51 nM.
On to `CN(C)Cc1ccc(-n2nc(C(C)(C)C)cc2NC(=O)Nc2ccc(OCc3ccnc(Nc4cnccn4)c3)c3ccccc23)cc1` [Example 267, 1-(3-(tert-butyl)-1-(4-((dimethylamino)methyl)phenyl)-1H-pyrazol-5-yl)-3-(4-((2-(pyrazin-2-ylamino)pyridin-4-yl)methoxy)naphthalen-1-yl)urea], for which the IC50 in experiment [1] was below 0.47 nM; in experiment [2], 2040 nM.
As for `Cc1ccc(-n2nc(C(C)(C)C)cc2NC(=O)Nc2ccc(OCc3ccnc(Nc4cnc(C(=O)NCCN(C)C)cn4)c3)c3ccccc23)cc1` [Example 268, 5-((4-(((4-(3-(3-(tert-butyl)-1-(p-tolyl)-1H-pyrazol-5-yl)ureido)naphthalen-1-yl)oxy)methyl)pyridin-2-yl)amino)-N-(2-(dimethylamino)ethyl) pyrazine-2-carboxamide], the IC50 in experiment [1] is below 0.42 nM; in experiment [2] it was 74 nM.
